Data taken from patent US20250326715A1, “NOVEL MAIN PROTEASE INHIBITORS, AND COMPOSITIONS AND METHODS THEREOF” (University of Massachusetts, priority 2023, published 2025).
Read-outs that look alike come from different tables or passages of the source.

Key:
[1] = Aqueous solubility (comparison in words)
SARS-CoV-2 [2] = experiment: Antiviral activity in SARS-CoV-2-infected K18-hACE2 transgenic mice; assay type: in vivo; conditions: K18-ACE2 mice; for viral RNA loads and titers in lung tissue vs vehicle control: 72 h treatment; for inflammatory cytokines and chemokines (IFN-β, TNF-α, IL-1β, IL-6) in lung tissue: infected for 72 hours; for protection from SARS-CoV2-induced weight loss and lethality: intranasal 10 mg/kg once daily for 3 days starting 2 h prior to infection; for protection from SARS-CoV-2-induced weight loss and lethality: intraperitoneal 25 mg/kg twice daily for 5 days, post-infection; for histopathological analysis of lung tissue: treatment for 5 days
Description: For these studies, K18-hACE2 transgenic mice (K18-ACE2) were used that express human ACE2 under the control of the epithelial cell cytokeratin-18 (K18) promoter as this model provides robust SARS-CoV-2 infection.
All animal experiments were approved by the Institutional Animal Care Use Committees at the University of Massachusetts Chan Medical School. Animal were kept in a specific pathogen free (SPF) environment. Hemizygous K18-hACE2 C57BL/6J mice (strain: […] (K18-ACE2)2Prlmn/J) were obtained from The Jackson Laboratory. 8-12-week-old male and female mice were anesthetized with isoflurane and infected intranasally with 3×10^4 PFU of SARS-CoV-2. […] Mice were monitored daily for weight loss and survival. Lung samples were collected at indicated time points and placed in a bead homogenizer tube with 1 ml of DMEM+2% FBS for homogenization, then 100 μl of this mixture was placed in PBS for tittering or in 300 μl Trizol LS (Invitrogen) for RNA extraction. For histology, lungs were perfused with 10 U/mL Heparin, intratracheally inflated with 10% buffered-formalin and dissected from mice. Tissues were fixed in 4% paraformaldehyde overnight and embedded in 10% paraffin. Five micrometer thin sections were stained by H&E. Histomorphology, grading of histology scores and evaluation of inflammation of each H&E slide was evaluated by Applied Pathology Systems.

A549-hACE2 cells = experiment: Cytotoxicity assay (LDH release); assay type: cell-based, human
Procedure: A549-hACE2 cells were treated with indicated doses of inhibitors for 24 hours. Then the media were collected for lactate dehydrogenase (LDH) assay.
Supernatant samples are transferred to a 96-well plate and an equal volume of CytoTox 96® Reagent is added to each well and incubated for 30 min.

SARS-CoV-2 [3] = assay type: cell-based; conditions: Huh7.5 cells, 2 μM, 24 h
SARS-CoV-2 M^Pro = SARS-CoV-2 M^Pro (Severe acute respiratory syndrome coronavirus 2, UniProt P0DTD1); experiment: Determination of kinact/KI values for SARS-CoV-2 M^Pro (time- and concentration-dependent inactivation); assay type: biochemical
Procedure: where νo is the initial velocity of uninhibited reaction and νi is the initial velocity in the presence of inhibitor. All measurements were done in triplicate. Determination of kinact/KI values for SARS-CoV-2 M^Pro
Time- and concentration-dependent inactivation assays were done by following a similar protocol as described for Ki determination. M^Pro (12.5 nM final) was treated with the peptide-substrate (30 μM final) and test inhibitor (0-80 μM for D-FF(R/Cit)-(CMK/CMKyne); 0-1.25 mM for SM136-145) at time=0 to initiate inactivation process. The total volume of the assay mixture was 50 μL. Time-dependent increase in fluorescence was monitored at 485 nm with excitation at 340 nm for a period of 20-25 min. The observed rates (kobs) for the peptide cleavage in both the presence and absence of inhibitor were determined by fitting to a single-phase association equation. The resulting kobs values were plotted against the concentrations of inhibitor and linear fits were used to derive the slope that afforded the kinact/KI values. All measurements were done in triplicate.

| SMILES | aqueous solubility, in words [1] | viral RNA loads and titers in lung tissue vs vehicle control (SARS-CoV-2 [2]) | inflammatory cytokines and chemokines (IFN-β, TNF-α, IL-1β, IL-6) in lung tissue (SARS-CoV-2 [2]) | protection from SARS-CoV2-induced weight loss and lethality (SARS-CoV-2 [2]) | protection from SARS-CoV-2-induced weight loss and lethality (SARS-CoV-2 [2]) | in vivo antiviral efficacy, SM141 compared with SM142 (SARS-CoV-2 [2]; survival) | histopathological analysis of lung tissue (SARS-CoV-2 [2]) | concentration up to which no notable cytotoxicity is caused (A549-hACE2 cells; A549-hACE2 cells, 24 h, LDH) [µM] | cytoxcity (A549-hACE2 cells; Table 2) [µM] | antiviral activity, in words (SARS-CoV-2 [3]) | kinact/KI (SARS-CoV-2 M^Pro; read-out: M^Pro kinact/KI) [M⁻¹ s⁻¹] | kinact/KI (SARS-CoV-2 M^Pro; read-out: second-order rate constant for enzyme inactivation (kinact/KI), M^Pro) [M⁻¹ s⁻¹] |
| --- | --- | --- | --- | --- | --- | --- | --- | --- | --- | --- | --- | --- |
| CCOC(=O)C=CC(CC1CCNC1=O)NC(=O)C(Cc1ccccc1)NC(=O)C(N)Cc1ccccc1 (centres unmarked) [SM141] | more aqueous solubility than SM142 | remarkably lower | Reduced inflammatory cytokines and chemokines were detected | protects mice from SARS-CoV2-induced weight loss and lethality | protects K18-ACE2 mice from SARS-CoV-2-induced weight loss and lethality | better antiviral efficacy | significant reduction in lung inflammation and improved overall lung pathology | > 50 | >100 | almost completely blocks viral infection | – | – |
| CCOC(=O)C=CC(CC1CCNC1=O)NC(=O)C(Cc1ccccc1)NC(=O)C(Cc1ccc(F)cc1)NC(=O)OC(C)(C)C (centres unmarked) [SM142] | – | remarkably lower | Reduced inflammatory cytokines and chemokines were detected | protects mice from SARS-CoV2-induced weight loss and lethality | protects K18-ACE2 mice from SARS-CoV-2-induced weight loss and lethality | – | significant reduction in lung inflammation and improved overall lung pathology | – | – | – | 183 | – |
| C#CCOCCC(=O)NC(Cc1ccc(F)cc1)C(=O)NC(Cc1ccccc1)C(=O)NC(C=CC(=O)OCC)CC1CCNC1=O (centres unmarked) [SM144] | – | – | – | – | – | – | – | – | – | – | – | 567 |
